Experiments:
[1] = test system: KA-induced epilepsy model in rats; experiment: kainic acid (KA)-induced seizure behavior in rats, Racine scale scoring (seizure score and latency); type: in vivo, Sprague-Dawley rats
From the text: Experimental animals are as follows. Male Sprague-Dawley rats (weight 200-250 g) purchased from BioLASCO in Taipei were housed in the Animal Center of Fu Jen Catholic University and maintained in a 12-h light/dark cycle with food and water available ad libitum. Rats were allowed to acclimate to laboratory conditions for at least 3 days before the start of the experiment.
The experimental design of the present invention is as follows. Cynarin pretreatment reduces epileptic behavior in animals induced by kainic acid (KA). […] Behavioral scoring was based on the Racine scale (1972), see FIG. 1.
Experimental grouping is as follows. […]
The experimental protocol for Racine scale behavioral scoring is as follows. The rats' epileptic seizure activity was continuously monitored for 3 hours, and epileptic behavior was scored according to the 1972 Racine scale. […]
Statistical analysis is as follows. […] Data are expressed as mean±standard error (SEM). Statistical significance was determined by one-way analysis of variation (ANOVA), combined with Bonferroni's post hoc test, and a p-value less than 0.05 was used as the criterion for significant differences.
The rats were pretreated either with normal saline (control), or CYN (0.5-25 mg/kg/day, p.o.), or CBZ (50 or 100 mg/kg/day, p.o.) or CYN 5 mg/kg/day+CBZ 50 mg/kg/day (p.o.) for 7 days before KA injection (15 mg/kg, i.p.). […] Data are expressed as mean±SEM. […]

[2] = test system: hippocampal CA1/CA3 nerve cells of KA-treated rats; experiment: NeuN staining of hippocampal CA1/CA3 nerve cells in KA-treated rats; type: in vivo; settings: Cynarin 10 mg/kg p.o. once daily for 7 days before KA 15 mg/kg i.p.; NeuN staining 72 h after KA
Experimental: In this example, rats were divided into four groups: a control group, a KA-only (15 mg/kg) treatment group, a Cynarin (CYN) (10 mg/kg) plus KA (15 mg/kg) treatment group, and a triple treatment group consisting of Cynarin (CYN) (5 mg/kg), Carbamazepine (CBZ) (50 mg/kg), and KA (15 mg/kg). During the experiment, except for the control group, rats in each group were administered Cynarin orally once daily for seven days. Then, on the eighth day, all experimental groups, except the control group, were further treated by intraperitoneal injection of KA (15 mg/kg).
FIGS. 3A and 3B show the effect of Cynarin (CYN) pretreatment on kainic acid (KA)-induced nerve cell death in the hippocampus of rats. (3A) Representative images of Neuronal nuclei (NeuN) staining at 72 h after KA i.p. injection. (3B) Semiquantitative analysis of NeuN-positive cells in the CA1 and CA3 regions. Data are mean±SEM (n=5 per group). ***, p<0.001 vs. control group. #, p<0.001 vs. KA group.

For `O=C(/C=C/c1ccc(O)c(O)c1)O[C@@H]1C[C@@](OC(=O)/C=C/c2ccc(O)c(O)c2)(C(=O)O)C[C@@H](O)[C@@H]1O` [CYN, Cynarin], the “effect on KA-induced epilepsy (seizure score and latency)” value ([1]; CYN 0.5 mg/kg/day p.o. for 7 days before KA 15 mg/kg i.p., rats observed 3 h) was “did not affect the epilepsy induced by KA”, the “inhibitory effect on epileptic seizure behavior” value ([1]; CYN 10 mg/kg/day p.o. for 7 days before KA 15 mg/kg i.p., compared with CYN 5 and 25 mg/kg, equivalent to CBZ 100 mg/kg) was “strongest inhibitory effect on epileptic seizure behavior in animals” and the “KA-induced reduction of the number of hippocampal CA1/CA3 nerve cells (NeuN-positive cells)” value [2] was “can also be reduced”.

From patent US20250302791A1, “METHOD FOR TREATING AND/OR PREVENTING EPILEPSY AND REDUCING SIDE EFFECT OF ANTI-EPILEPTIC DRUG BY USING CYNARIN” (FU JEN CATHOLIC UNIVERSITY, priority 2024, published 2025)
